Consider 4 molecules from ChEMBL document CHEMBL5291721, “A preclinical secondary pharmacology resource illuminates target-adverse drug reaction associations of marketed drugs” (Nat Commun, 2023).

A value given as a limit tells only on which side of the number the result lay.

Assay [1] has as its target T1, Alpha-1A adrenergic receptor (Homo sapiens, UniProt P35348).
T1 sequence (P35348 whole entry): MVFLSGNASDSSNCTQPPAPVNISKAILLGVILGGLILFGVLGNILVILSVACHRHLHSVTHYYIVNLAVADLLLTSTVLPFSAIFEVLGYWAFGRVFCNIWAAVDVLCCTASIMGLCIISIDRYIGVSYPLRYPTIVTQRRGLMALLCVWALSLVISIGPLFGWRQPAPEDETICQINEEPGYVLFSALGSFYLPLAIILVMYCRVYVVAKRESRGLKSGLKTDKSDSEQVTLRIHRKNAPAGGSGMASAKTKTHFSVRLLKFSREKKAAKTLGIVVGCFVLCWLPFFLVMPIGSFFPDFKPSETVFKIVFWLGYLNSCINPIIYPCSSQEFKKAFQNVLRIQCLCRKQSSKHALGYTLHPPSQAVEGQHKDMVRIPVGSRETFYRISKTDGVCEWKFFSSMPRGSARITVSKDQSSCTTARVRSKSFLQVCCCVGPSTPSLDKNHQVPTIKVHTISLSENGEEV

Assay [2] addresses Glucagon receptor (Homo sapiens, UniProt P47871).
Assay [3] concerns the target T2, D(4) dopamine receptor (Homo sapiens, UniProt P21917).
T2 sequence (P21917 whole entry): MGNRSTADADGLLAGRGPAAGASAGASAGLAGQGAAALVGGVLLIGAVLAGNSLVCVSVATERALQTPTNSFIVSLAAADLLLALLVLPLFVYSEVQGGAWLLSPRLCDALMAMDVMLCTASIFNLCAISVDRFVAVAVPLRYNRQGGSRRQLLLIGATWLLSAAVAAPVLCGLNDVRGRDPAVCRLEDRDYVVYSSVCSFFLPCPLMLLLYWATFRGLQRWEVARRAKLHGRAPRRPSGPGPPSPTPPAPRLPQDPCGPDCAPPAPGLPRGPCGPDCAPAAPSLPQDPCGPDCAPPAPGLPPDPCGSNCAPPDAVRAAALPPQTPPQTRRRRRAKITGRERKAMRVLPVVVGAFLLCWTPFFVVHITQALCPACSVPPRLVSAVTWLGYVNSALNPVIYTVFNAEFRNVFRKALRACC

For assay [4], the target named is T3, Endothelin receptor type B (Homo sapiens, UniProt P24530).
T3 sequence (P24530 whole entry): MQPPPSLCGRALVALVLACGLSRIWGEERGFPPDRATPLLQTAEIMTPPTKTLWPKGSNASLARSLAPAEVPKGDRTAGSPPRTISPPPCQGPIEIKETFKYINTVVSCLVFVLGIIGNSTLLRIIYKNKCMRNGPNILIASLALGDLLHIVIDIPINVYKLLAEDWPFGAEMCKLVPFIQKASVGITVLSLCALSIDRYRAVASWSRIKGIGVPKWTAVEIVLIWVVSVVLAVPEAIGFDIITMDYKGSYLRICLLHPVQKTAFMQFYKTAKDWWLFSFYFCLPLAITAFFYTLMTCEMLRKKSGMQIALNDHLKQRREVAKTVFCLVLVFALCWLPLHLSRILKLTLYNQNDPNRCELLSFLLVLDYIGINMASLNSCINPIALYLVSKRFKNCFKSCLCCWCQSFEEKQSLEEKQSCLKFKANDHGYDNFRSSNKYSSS

In assay [5] the target is T4, Progesterone receptor (Homo sapiens, UniProt P06401).
T4 sequence (P06401 whole entry): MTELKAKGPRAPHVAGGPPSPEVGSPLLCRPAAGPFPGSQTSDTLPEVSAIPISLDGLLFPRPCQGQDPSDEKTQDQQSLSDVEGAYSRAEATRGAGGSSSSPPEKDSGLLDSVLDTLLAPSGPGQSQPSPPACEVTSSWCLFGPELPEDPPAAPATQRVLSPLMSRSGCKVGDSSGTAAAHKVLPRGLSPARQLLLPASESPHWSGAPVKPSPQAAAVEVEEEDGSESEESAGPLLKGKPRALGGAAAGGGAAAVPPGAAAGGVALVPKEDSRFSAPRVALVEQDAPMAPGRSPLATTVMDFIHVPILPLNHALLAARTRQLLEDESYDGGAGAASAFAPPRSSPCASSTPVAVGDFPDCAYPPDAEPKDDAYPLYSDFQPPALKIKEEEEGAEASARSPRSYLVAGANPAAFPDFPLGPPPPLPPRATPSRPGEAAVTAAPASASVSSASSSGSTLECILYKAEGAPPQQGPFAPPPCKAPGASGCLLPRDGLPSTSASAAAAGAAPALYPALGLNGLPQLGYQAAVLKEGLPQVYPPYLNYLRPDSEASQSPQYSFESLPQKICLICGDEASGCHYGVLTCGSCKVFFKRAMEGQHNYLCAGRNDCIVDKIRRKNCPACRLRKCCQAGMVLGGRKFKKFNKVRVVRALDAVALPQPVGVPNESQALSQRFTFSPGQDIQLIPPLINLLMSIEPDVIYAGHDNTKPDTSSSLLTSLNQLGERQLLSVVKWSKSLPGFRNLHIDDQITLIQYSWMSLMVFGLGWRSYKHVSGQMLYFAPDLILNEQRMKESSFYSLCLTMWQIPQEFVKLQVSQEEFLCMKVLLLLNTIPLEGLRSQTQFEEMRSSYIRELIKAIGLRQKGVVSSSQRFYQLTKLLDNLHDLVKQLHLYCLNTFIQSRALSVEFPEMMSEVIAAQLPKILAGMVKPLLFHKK

The target of assay [6] is T5, Thromboxane A2 receptor (Homo sapiens, UniProt P21731).
T5 sequence (P21731 whole entry): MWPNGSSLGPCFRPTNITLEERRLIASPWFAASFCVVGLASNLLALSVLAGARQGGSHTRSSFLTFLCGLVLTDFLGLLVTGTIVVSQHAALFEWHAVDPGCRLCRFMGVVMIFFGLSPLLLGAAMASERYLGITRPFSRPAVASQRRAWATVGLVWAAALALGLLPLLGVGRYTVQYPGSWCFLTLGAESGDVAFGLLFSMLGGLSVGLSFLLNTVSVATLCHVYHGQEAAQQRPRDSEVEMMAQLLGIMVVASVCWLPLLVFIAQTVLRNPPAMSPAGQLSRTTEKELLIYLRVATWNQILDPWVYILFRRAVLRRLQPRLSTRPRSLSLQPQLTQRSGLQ
Format: functional, cell-based.

Assay [7] concerns the target Sodium-dependent dopamine transporter (Homo sapiens, UniProt Q01959).
For assay [8], the target named is cGMP-inhibited 3',5'-cyclic phosphodiesterase 3A (Homo sapiens, UniProt Q14432). Format: functional.
Also: assay procedure not described here.

cGMP-inhibited 3',5'-cyclic phosphodiesterase 3A, sequence (Q14432 whole entry): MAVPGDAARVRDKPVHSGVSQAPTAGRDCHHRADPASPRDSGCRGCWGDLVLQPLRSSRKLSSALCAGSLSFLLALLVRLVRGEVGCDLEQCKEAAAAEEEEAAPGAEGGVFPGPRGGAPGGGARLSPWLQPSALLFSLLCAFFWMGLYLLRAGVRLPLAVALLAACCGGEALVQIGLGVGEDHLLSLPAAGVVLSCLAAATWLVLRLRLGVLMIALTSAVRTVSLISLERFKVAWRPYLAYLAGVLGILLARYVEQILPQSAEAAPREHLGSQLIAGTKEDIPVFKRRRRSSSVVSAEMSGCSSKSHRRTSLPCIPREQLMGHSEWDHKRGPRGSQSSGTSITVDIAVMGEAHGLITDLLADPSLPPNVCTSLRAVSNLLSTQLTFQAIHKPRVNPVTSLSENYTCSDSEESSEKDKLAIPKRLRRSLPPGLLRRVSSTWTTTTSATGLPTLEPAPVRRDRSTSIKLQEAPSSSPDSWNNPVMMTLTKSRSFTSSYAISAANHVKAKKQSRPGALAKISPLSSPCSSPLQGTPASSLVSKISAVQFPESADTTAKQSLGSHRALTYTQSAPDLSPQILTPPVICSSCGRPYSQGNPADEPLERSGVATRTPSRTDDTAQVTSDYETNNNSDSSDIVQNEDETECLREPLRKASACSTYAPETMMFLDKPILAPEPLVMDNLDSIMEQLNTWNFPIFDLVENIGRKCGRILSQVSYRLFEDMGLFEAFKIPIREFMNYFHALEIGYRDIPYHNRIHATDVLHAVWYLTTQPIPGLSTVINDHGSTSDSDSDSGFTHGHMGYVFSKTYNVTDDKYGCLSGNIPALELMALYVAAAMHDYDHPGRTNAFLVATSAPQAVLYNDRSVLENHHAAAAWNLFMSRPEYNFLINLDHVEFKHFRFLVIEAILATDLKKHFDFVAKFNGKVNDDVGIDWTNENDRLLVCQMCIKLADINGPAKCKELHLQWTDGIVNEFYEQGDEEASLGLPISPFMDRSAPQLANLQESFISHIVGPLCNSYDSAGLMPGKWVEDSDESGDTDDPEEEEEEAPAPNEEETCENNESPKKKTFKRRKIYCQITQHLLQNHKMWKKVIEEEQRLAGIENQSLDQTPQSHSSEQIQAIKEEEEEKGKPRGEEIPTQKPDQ
Sodium-dependent dopamine transporter, sequence (Q01959 whole entry): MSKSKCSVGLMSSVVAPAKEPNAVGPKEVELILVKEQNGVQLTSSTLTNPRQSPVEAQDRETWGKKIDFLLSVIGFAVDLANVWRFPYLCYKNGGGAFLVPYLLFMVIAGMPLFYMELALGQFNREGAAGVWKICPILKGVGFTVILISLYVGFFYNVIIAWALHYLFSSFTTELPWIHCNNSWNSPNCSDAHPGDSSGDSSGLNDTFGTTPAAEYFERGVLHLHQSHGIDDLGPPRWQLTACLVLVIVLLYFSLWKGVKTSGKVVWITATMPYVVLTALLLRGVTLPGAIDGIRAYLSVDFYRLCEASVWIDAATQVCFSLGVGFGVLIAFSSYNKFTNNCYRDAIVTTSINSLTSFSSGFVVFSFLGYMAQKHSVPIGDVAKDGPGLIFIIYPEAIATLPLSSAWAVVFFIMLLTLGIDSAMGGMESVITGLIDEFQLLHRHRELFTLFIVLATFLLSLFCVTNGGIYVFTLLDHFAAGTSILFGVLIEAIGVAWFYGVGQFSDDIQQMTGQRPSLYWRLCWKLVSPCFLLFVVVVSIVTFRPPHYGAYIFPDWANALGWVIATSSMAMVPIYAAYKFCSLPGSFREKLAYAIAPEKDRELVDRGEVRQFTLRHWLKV
Glucagon receptor, sequence (P47871 whole entry): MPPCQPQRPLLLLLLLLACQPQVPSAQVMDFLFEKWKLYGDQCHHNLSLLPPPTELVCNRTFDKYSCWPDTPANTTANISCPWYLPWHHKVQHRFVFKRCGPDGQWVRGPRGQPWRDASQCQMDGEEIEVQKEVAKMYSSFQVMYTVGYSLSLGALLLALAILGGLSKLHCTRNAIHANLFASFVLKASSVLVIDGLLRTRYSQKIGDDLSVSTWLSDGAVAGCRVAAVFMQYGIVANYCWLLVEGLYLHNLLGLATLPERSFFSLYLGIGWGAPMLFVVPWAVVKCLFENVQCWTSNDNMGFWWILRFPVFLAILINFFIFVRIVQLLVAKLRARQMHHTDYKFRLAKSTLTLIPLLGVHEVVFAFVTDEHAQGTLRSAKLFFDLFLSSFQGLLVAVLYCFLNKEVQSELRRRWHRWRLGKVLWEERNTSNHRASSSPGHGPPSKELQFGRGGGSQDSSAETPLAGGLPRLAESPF

One may read the AC50 as the concentration at which the activity in the assay is half-maximal. A high value points to activity only at high concentration. Consider `Cc1c(OCC(F)(F)F)ccnc1C[S+]([O-])c1nc2ccccc2[nH]1` (stereo unspecified) [LANSOPRAZOLE], for which the AC50 is over 10 µM in assay [1], over 30 µM in assay [2], 2.11 µM in assay [3] and over 30 µM in assay [4].
On to `CO[C@]12C[C@@H](COC(=O)c3cncc(Br)c3)CN(C)[C@@H]1Cc1cn(C)c3cccc2c13` [NICERGOLINE], for which the AC50 in assay [5] was over 30 µM; in assay [6], over 30 µM; in assay [7], 11.2 µM; in assay [8], over 30 µM.
Regarding `COc1cccc(C2(O)CCCCC2CN(C)C)c1` (stereo unspecified) [TRAMADOL], the AC50 in assay [1] was over 10 µM; in assay [2], over 30 µM; in assay [3], over 10 µM; in assay [4], over 30 µM.
On to THIMEROSAL, for which the AC50 in assay [5], in assay [6], in assay [7] and in assay [8] was over 30 µM in each case.
